The values below come from patent US9012497B2, “Cyclohexyl carbamate compounds as active anti-cellulite ingredients” (Symrise AG, priority 2010, dated 2015).

Assay [1] deals with 3T3-L1 cells. The assay is described as follows: Adipogenesis assay (in vitro), Nile Red lipid staining. The conditions noted are these: Mus musculus, mean values of at least 2 independent tests, read-out: Adipogenesis inhibition IC50. Format: cell-based. How it is done: 3T3-L1 cells (mouse embryonic fibroblast-like adipocyte cell line) are seeded in a 48-well plate with collagen I-coating in a concentration of 3×10^4 cells/well. After 72 h cultivation at 37° C. and 5% CO2 in DMEM (Dulbecco's Modified Eagle Medium), enriched with 10% calf serum, various concentrations of the test substances in DMEM, enriched with 10% foetal calf serum and to which are added 1 μg/ml insulin, 0.25 μM dexamethasone and 0.5 mM IBMX (3-isobutyl-1-methylxanthine), are added and incubated for a further 48 h. A media change takes place, in that DMEM, enriched with 10% foetal calf serum and with 1 μg/ml insulin added, are applied. After renewed cultivation for 48 h, a further media change takes place, in which DMEM, enriched with 10% foetal calf serum, is applied.
After a further incubation for 72 h, the intracellularly stored lipids are quantified as a measure for the differentiation of the cells by measuring the fluorescence after staining of the lipids with the fluorescent dye Nile Red.
The inhibition of the adipogenesis in the presence of the test substances is calculated according to the following equation:
[formula] wherein RFU test substance=relative fluorescent units of the wells with test substance and with cells RFU control=relative fluorescent units of the wells without test substance, but with cells RFU control without cells=relative fluorescent units of the wells without test substance and without cells The IC50 is calculated from the adipogenesis inhibition [%] in a series of dilutions of tested samples. This is the concentration at which the adipogenesis is 50% inhibited.

In assay [2] the test system is 3T3-L1 cells. Put plainly: Lipolysis assay, in vitro on 3T3-L1 cells, free glycerol release. Format: cell-based. The following applies: Mus musculus; differentiated 3T3-L1 cells, about 20 hours of incubation; mean values from at least 2 independent tests; read-out: Stimulation of lipolysis EC50. How it is done:
3T3-L1 cells (mouse embryonic fibroblast-like adipocyte cell line) are seeded in a 48-well plate with collagen I-coating in a concentration of 3×10^4 cells/well. The cultivation and differentiation of the cells takes place analogously to the details in Example 2 (adipogenesis assay).
Various concentrations of the test substances are applied to the cells in DMEM, with bovine serum albumen added. After about 20 hours of incubation, the quantification of free glycerol in the supernatant of the cells takes place, which is released by the cells after hydrolysis of triglycerides in the cells and is a measure of the lipolysis of the cells. The quantification of the free glycerol is carried out based on an enzymatic method with a free glycerol reagent.
The stimulation of the lipolysis in the presence of test substances is calculated according to the following equation:
[formula] wherein A test substance=absorption of the wells with test substance and with cells A test substance without cells=absorption of the wells with test substance without cells (absorption control) A control=absorption of the wells without test substance, but with cells A control without cells=absorption of the wells without test substance and without cells
The EC50 is calculated from the lipolysis stimulation [%] in a series of dilutions of tested samples. This is the concentration at which the lipolysis is 50% stimulated.

A further assay has as its target T1, pancreatic lipase (PL) (Sus scrofa, UniProt P00591).
T1 construct: purchased Sigma-Aldrich
T1 sequence (P00591 1-450): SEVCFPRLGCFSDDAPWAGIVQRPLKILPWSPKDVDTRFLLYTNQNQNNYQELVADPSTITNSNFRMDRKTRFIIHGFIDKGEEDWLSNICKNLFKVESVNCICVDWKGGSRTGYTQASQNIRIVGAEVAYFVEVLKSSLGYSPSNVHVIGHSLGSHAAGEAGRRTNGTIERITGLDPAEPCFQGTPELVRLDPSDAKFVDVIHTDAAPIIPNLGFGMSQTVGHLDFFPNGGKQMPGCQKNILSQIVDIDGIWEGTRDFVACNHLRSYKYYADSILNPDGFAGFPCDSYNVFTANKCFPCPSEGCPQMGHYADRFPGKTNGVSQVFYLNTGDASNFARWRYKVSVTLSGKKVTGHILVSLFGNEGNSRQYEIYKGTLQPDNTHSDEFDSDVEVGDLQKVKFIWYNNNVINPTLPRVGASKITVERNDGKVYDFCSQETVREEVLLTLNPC
The assay is described as follows: Inhibition of PL, MUF oleate hydrolysis. Format: biochemical. The following applies: mean values of at least 2 independent tests. From the text:
(§1) Lipogenesis is perceived as the storage of triglycerides in adipocytes. The inhibition of this storage can take place by means of the inhibition of the activity of extracellular lipoprotein lipase (LPL) in that the hydrolysis of extracellular triglycerides and therefore the absorption of free fatty acids by adipocytes are reduced. As a preliminary test, the inhibition of pancreatic lipase (PL) is investigated.
PL (Sigma-Aldrich), in the presence of test substances in different use concentrations has methylumbelliferyl oleate (MUF oleate) added as a substrate. Fluorescent methylumelliferon (MUF), is produced by hydrolysis of the MUF oleate by PL and is quantified. The inhibition of the hydrolysis of the MUF oleate is a measure of the inhibition of activity of the PL.
[formula] wherein MUF test substance=MUF concentration of the wells with test substance and with PL MUF control=MUF concentration of the wells without test substance, but with PL MUF control without PL=MUF concentration of the wells without test substance and without PL
The IC50 is calculated from the inhibition of the PL [%] in a series of dilutions of tested samples. This is the concentration, at which the activity of the PL is 50% inhibited.

Another assay addresses T2, lipoprotein lipase (LPL) (Mus musculus, UniProt P11152).
T2 construct: endogenous in cells; host or cells: differentiated 3T3-L1 cells (mouse); heparin-released supernatant
T2 sequence (P11152 28-474): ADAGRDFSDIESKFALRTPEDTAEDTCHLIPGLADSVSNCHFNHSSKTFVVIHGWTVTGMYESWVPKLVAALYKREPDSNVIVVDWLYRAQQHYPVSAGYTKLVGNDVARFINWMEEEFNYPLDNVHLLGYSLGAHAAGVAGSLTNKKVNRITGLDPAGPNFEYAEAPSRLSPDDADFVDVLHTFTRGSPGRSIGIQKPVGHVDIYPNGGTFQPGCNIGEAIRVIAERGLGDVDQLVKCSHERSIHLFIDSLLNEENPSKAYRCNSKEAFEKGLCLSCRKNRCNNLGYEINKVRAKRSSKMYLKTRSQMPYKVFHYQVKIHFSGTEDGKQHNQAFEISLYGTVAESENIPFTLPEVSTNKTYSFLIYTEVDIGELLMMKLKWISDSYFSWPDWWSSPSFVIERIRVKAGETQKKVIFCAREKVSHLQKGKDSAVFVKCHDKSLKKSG
The assay is described as follows: Inhibition of LPL (lipogenesis assay), MUF oleate hydrolysis. Format: biochemical. The conditions noted are these: LPL obtained from differentiated 3T3-L1 cells; mean values of at least 2 independent tests.
From the text: as §1
The results of the inhibition of the PL are used as a preliminary test and are confirmed on LPL. To obtain LPL, 3T3-L1 cells (mouse embryonic fibroblast-like adipocyte cell line) are seeded in a 6-well plate with collagen I-coating in a concentration of 3×10^5 cells/well. The cultivation and differentiation of the cells takes place analogously to the details in Example 2 (adipogenesis assay). During the differentiation LPL is increasingly expressed. The LPL is present in a membrane-bound state and is released by one hour incubation with heparin solution at 2-8° C. to the supernatant of the cells.
The LPL thus obtained, in the presence of test substances in different use concentrations, has methylumbelliferyl oleate (MUF oleate) added as the substrate. Fluorescent methylumbelliferyl (MUF) is produced by hydrolysis of the MUF oleate by LPL and is quantified. The inhibition of the hydrolysis of the MUF oleate is a measure of the inhibition of the activity of the LPL and therefore the lipogenesis.
[formula] wherein MUF test substance=MUF concentration of the wells with test substance and with LPL MUF control=MUF concentration of the wells without test substance, but with LPL MUF control without LPL=MUF concentration of the wells without test substance and without LPL
The IC50 is calculated from the inhibition of the LPL [%] in a series of dilutions of tested samples. This is the concentration at which the activity of the LPL and therefore the lipogenesis is 50% inhibited.

As to `O=C(Nc1ccccc1)OC1CCCCC1` [BIO1741, Phenyl-carbamic acid cyclohexyl ester], the IC50 (commonly the concentration that inhibits the measured activity by half) with 3T3-L1 cells [1] came to 440 µM. Further, the EC50 – broadly, the concentration giving half of the maximal effect – with 3T3-L1 cells [2] was 360 µM.
Take `CCNC(=O)OC1CC(C)CC(C)C1` (mixture of isomers) [BIO1561, Ethyl-carbamic acid 3,5-dimethyl-cyclohexyl ester]: the IC50 at pancreatic lipase (PL) stood at 400 µM.
With `COc1ccccc1NC(=O)OC1C(C)CCC(C)C1C` (stereo not shown) [BIO1701, (2-Methoxy-phenyl)-carbamic acid 2,3,6-trimethyl-cyclohexyl ester], the IC50 turned out to be 110 µM in the assay with 3T3-L1 cells [1] and 470 µM against pancreatic lipase (PL).
In the case of `C=C(C)C1CCC(C)CC1OC(=O)NCCCC` (stereo not shown) [BIO1615, Butyl-carbamic acid 2-isopropenyl-5-methyl-cyclohexyl ester], the IC50 was 160 µM in the assay with 3T3-L1 cells [1], 340 µM at pancreatic lipase (PL) and 870 µM at lipoprotein lipase (LPL). Further, the EC50 in the assay on 3T3-L1 cells [2] was determined as 820 µM.
Take `CC(C)C1CCCCC1OC(=O)NCc1ccccc1` (stereo not shown) [BIO1748, Benzyl-carbamic acid 2-isopropyl-cyclohexyl ester]: the results for the IC50 with 3T3-L1 cells [1] and on pancreatic lipase (PL) were 59 µM and 2170 µM, respectively. In addition, the half-maximal effective concentration (EC50) in the assay on 3T3-L1 cells [2] turned out to be 810 µM.
In the case of `CC1CC(C)CC(OC(=O)NC2CCCCC2)C1` (stereo not shown) [BIO1743, Cyclohexyl-carbamic acid 3,5-dimethyl-cyclohexyl ester], the half-inhibitory concentration (IC50) in the assay on 3T3-L1 cells [1] turned out to be 91 µM. In addition, in the assay on 3T3-L1 cells [2], the EC50 turned out to be 1890 µM.
For `CCCCNC(=O)OC1CC(C)CC(C)C1` (stereo not shown) [BIO1840, Butyl-carbamic acid 3,5-dimethyl-cyclohexyl ester], the results for the IC50 in the assay with 3T3-L1 cells [1] and against pancreatic lipase (PL) were 160 µM and 550 µM, respectively. Further, the concentration giving a half-maximal response (EC50) with 3T3-L1 cells [2] is 700 µM.
On to `Cc1ccc(NC(=O)OC2CCCCC2C(C)C)cc1` (stereo not shown) [BIO1824, p-Tolyl-carbamic acid 2-isopropyl-cyclohexyl ester], for which, in the assay with 3T3-L1 cells [1], the IC50 was determined as 92 µM. Moreover, the EC50 in the assay with 3T3-L1 cells [2] stood at 510 µM.
Take `CCNC(=O)OC1CCCC(C)C1C` (stereo not shown) [BIO1581, Ethyl-carbamic acid 2,3-dimethyl-cyclohexyl ester]: the IC50 with 3T3-L1 cells [1] came out at 160 µM; against pancreatic lipase (PL) it was 240 µM.
As to `CCNC(=O)OC1CCC(C)C(C)C1` (stereo not shown) [BIO1582, Ethyl-carbamic acid 3,4-dimethyl-cyclohexyl ester], half-maximal inhibition at pancreatic lipase (PL) (IC50) was put at 420 µM.
For `CC1CCCC(OC(=O)Nc2ccccc2O)C1C` (stereo not shown) [BIO1643, (2-Hydroxy-phenyl)-carbamic acid 2,3-dimethyl-cyclohexyl ester], the IC50 came to 14 µM in the assay on 3T3-L1 cells [1] and 420 µM against pancreatic lipase (PL).
`CCCCCCNC(=O)OC1CC(C)CC(C)(C)C1` (stereo not shown) [BIO1850, Hexyl-carbamic acid 3,3,5-trimethyl-cyclohexyl ester]: the IC50 in the assay with 3T3-L1 cells [1] came out at 360 µM; on pancreatic lipase (PL), 520 µM; against lipoprotein lipase (LPL), 680 µM.
As for `COc1ccccc1NC(=O)OC1CCCCC1C(C)C` (stereo not shown) [BIO1744, (2-Methoxy-phenyl)-carbamic acid 2-isopropyl-cyclohexyl ester], half-maximal inhibition against pancreatic lipase (PL) (IC50) was put at 230 µM.
As for `CCCCNC(=O)OC1CCCC(C)C1` (stereo not shown) [BIO1821, Butyl-carbamic acid 3-methyl-cyclohexyl ester], the IC50 at pancreatic lipase (PL) is 510 µM.
`CCCCNC(=O)OC1CCCC(C)C1C` (stereo not shown) [BIO1842, Butyl-carbamic acid 2,3-dimethyl-cyclohexyl ester]: the IC50 in the assay on 3T3-L1 cells [1] is 150 µM; on pancreatic lipase (PL) it was 670 µM. In addition, the EC50 in the assay with 3T3-L1 cells [2] came out at 230 µM.
`CC1CC(C)CC(OC(=O)NCc2ccccc2)C1` (stereo not shown) [BIO1745, Benzyl-carbamic acid 3,5-dimethyl-cyclohexyl ester]: the figures for the IC50 with 3T3-L1 cells [1] and at pancreatic lipase (PL) were 120 µM and 130 µM, respectively.
As for `CC(C)(C)C1CCC(OC(=O)NC2CCCCC2)CC1` (stereo not shown) [BIO1747, Cyclohexyl-carbamic acid 4-tert-butyl-cyclohexyl ester], the IC50 with 3T3-L1 cells [1] was found to be 120 µM. In addition, the concentration giving a half-maximal response (EC50) with 3T3-L1 cells [2] amounted to 610 µM.
The molecule `CCNC(=O)OC1CCC(C(C)C)C(C)C1` (stereo not shown) [BIO1560, Ethyl-carbamic acid 4-isopropyl-3-methyl-cyclohexyl ester] came in with a concentration for half-maximal inhibition (IC50) at pancreatic lipase (PL) of 560 µM.
For `CCCCCCNC(=O)OC1CCCCC1C(C)C` (stereo not shown) [BIO1851, Hexyl-carbamic acid 2-isopropyl-cyclohexyl ester], the figures for the 50% inhibitory concentration (IC50) in the assay with 3T3-L1 cells [1] and against pancreatic lipase (PL) were 86 µM and 1240 µM, respectively. Besides, in the assay with 3T3-L1 cells [2], the EC50 came to 1170 µM.
For `COc1ccccc1NC(=O)OC1CC(C)CC(C)(C)C1` (stereo not shown) [BIO1703, (2-Methoxy-phenyl)-carbamic acid 3,3,5-trimethyl-cyclohexyl ester], the half-maximal inhibitory concentration (IC50) in the assay with 3T3-L1 cells [1] was 51 µM; against pancreatic lipase (PL), 1860 µM.
For `CCNC(=O)OC1CC2CCC1(C)C2(C)C` (stereo not shown) [BIO1573, Ethyl-carbamic acid 1,7,7-trimethyl-bicyclo[2.2.1]hept-2-yl ester], the EC50 with 3T3-L1 cells [2] was found to be 350 µM.
As to `CC1CC(C)CC(OC(=O)Nc2ccccc2)C1` (stereo not shown) [BIO1685, Phenyl-carbamic acid 3,5-dimethyl-cyclohexyl ester], in the assay on 3T3-L1 cells [1], the IC50 was found to be 340 µM. Further, the EC50 in the assay on 3T3-L1 cells [2] was determined as 600 µM.
For the molecule `Cc1ccc(NC(=O)OC2CC(C)CC(C)C2)cc1` (stereo not shown) [BIO1822, p-Tolyl-carbamic acid 3,5-dimethyl-cyclohexyl ester], the IC50 with 3T3-L1 cells [1] was 170 µM.
